{
  "source": "patent US6982252B2",
  "about": "“Inhibition of vacuolar proton ATPase activity and/or the modulation of acidic organelle function sensitizes cells to radiation, chemotherapy and biological agents” (Memorial Sloan-Kettering Cancer Center, priority 2000, dated 2006)",
  "key": {"Capan-1 xenograft tumor": {"system": "Capan-1 xenograft tumor", "conditions": "subcutaneous, doses smaller than 1 mg/kg/day; cited from earlier work"}, "[1]": {"conditions": "subcutaneous, doses smaller than 1 mg/kg/day, cited from earlier work"}, "[2]": {"system": "Capan-1 human pancreatic cancer cell line", "conditions": "Capan-1 in vitro; cited from earlier work"}, "[3]": {"system": "acidic vesicular organelles (AVO) in MCF-7 cells", "assay": "Mean red/green fluorescence ratio in acridine orange stained cells by flow cytometry", "type": "cell-based, human", "conditions": "500 nM bafilomycin A1 30 minutes prior to acridine orange", "procedure": "bFGF was added to cultures of MCF-7 cells at 10 ng/ml for 48 hours. TNF was added at 2.3 nM for 48 hours. PMA was added for 1 hour at a concentration of 30 nM, followed by rinsing of the cells and incubation for an additional 48 hours.\nCell staining was performed according to standard techniques (Arvan et al., 1984, J. Bio. Chem. 259:13567-13572; Mains and May, 1988, J. Biol. Chem. 263:7887-7894; Traganos and Darzynkiewicz, Methods in Cell Biology 41:185-194, Academic Press). Acridine orange (Polysciences, Warrington, Pa.) was added to a final concentration of 1 μg/ml for 15 minutes. Bafilomycin A1 (Sigma Chemical Co., St. Louis, Mo.) was dissolved in DMSO and added to the cells 30 minutes prior to the addition of acridine orange. LysoSensor Blue DND-167 (Molecular Probes, Eugene, Oreg.) at a final concentration of 10 μM was added for 8 minutes. Pictures were obtained with a fluorescence microscope (Olympus BH-2 RFCA), equipped with a mercury-100 W lamp, 490 nm band pass blue excitation filters, 500 nm dichroic mirror and a 515 nm long pass barrier filter. Images of control and irradiated cells were recorded on Kodak Elite II 100 ASA film for color slides by 4 seconds exposure.\nIn acridine orange stained cells the cytoplasm and nucleolus fluoresce bright green and dim red, while acidic compartments fluoresce bright red (Mains and May, 1988, J. Biol. Chem. 263:7887-7894; Traganos and Darzynkiewicz, Methods in Cell Biology Vol. 41, pp. 185-194, Academic Press). The intensity of the red fluorescence is proportional to the degree of acidity and/or the volume of the cellular acidic compartment. Therefore, by comparing the mean red/green fluorescence ratio within different cell populations, a change in the degree of acidity and/or the fractional volume of the cellular acidic compartment could be measured. Cells were stained with acridine orange for […], removed from the plate with trypsin-EDTA and collected in phenol red-free growth medium. Green (510-530 nm) and red (>650 nm) Fluoresence emission from 10,000 cells illuminated with blue (488 nm) excitation light was measured with a FACSCalibur from Becton Dickinson (San Jose, Calif.) using CellQuest software. The red to green fluorescence ratio for individual cells was calculated using FlowJo software (TREE STAR, Inc., San Carlos, Calif.). To control for possible effect of trypsinization on the measured red to green fluorescence ratio, the ratios were compared by flow cytometry with those obtained with a Laser Scanning Microscope (LSM510 from Zeiss). Stained cells, grown on cover glass, were illuminated with a 488 nm argon laser beam. The red (>650 nm) to green (505-545 nm) fluorescence ratio of an entire image was obtained using software LSM 510 version 2.01 SP2. These measurements yielded similar results to those obtained with flow cytometry. All determinations of red to green fluorescence ratio reported in this section were obtained via flow cytometry."}, "V-ATPase": {"target": "V-ATPase (Homo sapiens, UniProt P27449)", "sequence (P27449 whole entry)": "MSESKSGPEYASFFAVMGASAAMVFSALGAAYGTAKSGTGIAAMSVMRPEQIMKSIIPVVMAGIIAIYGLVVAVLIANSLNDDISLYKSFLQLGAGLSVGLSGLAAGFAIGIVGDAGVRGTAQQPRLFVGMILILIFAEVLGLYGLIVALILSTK", "conditions": "Gagliardi et al., 1999; cited from earlier work"}, "[4]": {"system": "LoVo (human colon adenocarcinoma)", "assay": "Clonogenic survival (surviving fraction) of LoVo cells after radiation or chemotherapeutic agent", "type": "cell-based", "procedure": "MCF-7 (human breast adenocarcinoma), LoVo (human colon adenocarcinoma) and LNCaP (human prostate carcinoma) were obtained from the American Type Culture Collection. Cells were maintained as described in Paglin et al., 1997, Biochem. Biophs. Res. Comm. 237:678-684). Irradiation was carried out 48 hours post-plating (T0) at room temperature using a Cs-137 irradiator (Sheperd Mark-I, model 68, SN643) at a dose rate of 2.43-2.32 Gy/min. Bovine aortic endothelial cells were grown and treated with H2O2 as described in Haimovitz-Friedman et al., 1994, J. Exp. Med. 180:525-535 and Verhij et al., 1996, Nature 380:75-79. Phorbol 12-myristate 13-acetate (PMA; Alexis Biochemicals Corp., San Diego, Calif.) was dissolved in dimethyl sulfoxide (DMSO) and added to cells for the duration of one hour. The final DMSO concentration was 0.03%. The cells were then rinsed with warm growth medium before being returned to the incubator for an additional 48 hours.\nCells were plated in growth medium at a density of 30-90 cells per square centimeter and irradiated 22 hours later. Each experimental condition was done in quintet or triplicate. Cells were irradiated at room temperature in Cs-137 Irradiator (Sheperd Mark-I, Model 68, SN 643) at a rate of 2.43-2.32 Gy/min. […] For determination of their red to green ratio, colonies were processed as described above. For determination of surviving fractions cells were stained with crystal violet and colonies containing 50 cells or more were counted with a dissecting microscope. The surviving fraction was defined as the ratio between the plating efficiencies of irradiated and non-irradiated cells and was calculated at each dose level according to Hall and Phill (1994, […] for the Radiologist, 4th Edition, J. Lippincott Co., Philadelphia)."}, "F and P-type ATPases": {"system": "F and P-type ATPases", "conditions": "cited from earlier work"}},
  "note": "Values joined by “and” are separate entries in the source; they are usually repeats but may differ in a detail not shown here. Identical values can stand only once.",
  "data": [
    {"substance": "bafilomycin A1", "values": [
      {"measurement": "effect on Capan-1 xenograft tumor", "setting": "Capan-1 xenograft tumor", "value": "apoptotic death of Capan-1 cells in their xenograft tumor and overall shrinkage of the tumors"},
      {"measurement": "histological examination of organs", "setting": "[1]; four weeks treatment", "value": "did not affect the liver, pancreas, small intestine, kidney or lung"},
      {"measurement": "growth of nude mice", "setting": "[1]; up to four weeks, Ohta et al., 1998", "value": "did not affect the growth"},
      {"measurement": "concentrations reported to induce apoptosis", "setting": "[2]", "value": "greater than 10 nM"},
      {"measurement": "radiation-induced increase of mean red/green fluorescence ratio", "setting": "[3]; 24 hours following 10 Gy", "value": "inhibited its radiation-induced increase"},
      {"measurement": "mean red/green fluorescence ratio in unirradiated cells", "setting": "[3]; unirradiated", "value": "decreased"},
      {"measurement": "concentration range that inhibits V-H+-ATPase activity without affecting F or P-type ATPases", "setting": "V-ATPase", "value": "nM range"},
      {"measurement": "decrease of survival of cells exposed to Adriamycin", "setting": "[4]; 2 nM bafilomycin, 100 nM Adriamycin", "value": 22, "unit": "%"},
      {"measurement": "decrease of survival", "setting": "[4]; 2 nM bafilomycin, 3 Gy, Table 11 and Table 12", "value": "43% and 24%"},
      {"measurement": "decrease of resistance to Adriamycin", "setting": "[4]; 2 nM bafilomycin, Adriamycin 100 nM, 48 hours", "value": 35, "unit": "%"},
      {"measurement": "decrease of survival", "setting": "[4]; 2 nm bafilomycin A1, 2 Gy", "value": 25, "unit": "%"},
      {"measurement": "decrease of survival", "setting": "[4]; 2 nm bafilomycin A1, 3 Gy", "value": 30, "unit": "%"},
      {"measurement": "Surviving Fraction 0 Gy", "setting": "[4]; Table 11, Bafilomycin A1 2 nM", "value": "1.14 ± 0.09"},
      {"measurement": "Surviving Fraction 3 Gy", "setting": "[4]; Table 11, Bafilomycin A1 2 nM, 3 Gy", "value": "0.24 ± 0.08"},
      {"measurement": "Surviving Fraction 0 Gy", "setting": "[4]; Table 11, Bafilomycin A1 4 nM", "value": "1.01 ± 0.03"},
      {"measurement": "Surviving Fraction 3 Gy", "setting": "[4]; Table 11, Bafilomycin A1 4 nM, 3 Gy", "value": "0.23 ± 0.02"},
      {"measurement": "Surviving Fraction 0 Gy", "setting": "[4]; Table 11, Bafilomycin A1 8 nM", "value": "0.84 ± 0.12"},
      {"measurement": "Surviving Fraction 3 Gy", "setting": "[4]; Table 11, Bafilomycin A1 8 nM, 3 Gy", "value": "0.19 ± 0.04"},
      {"measurement": "Surviving Fraction 0 Gy", "setting": "[4]; Table 12, Bafilomycin 2 nM", "value": "0.92 ± 0.05"},
      {"measurement": "Surviving Fraction 3 Gy", "setting": "[4]; Table 12, Bafilomycin 2 nM, 3 Gy", "value": "0.16 ± 0.01"},
      {"measurement": "Surviving Fraction 0 Gy", "setting": "[4]; Table 12, Bafilomycin 4 nM", "value": "0.84 ± 0.03"},
      {"measurement": "Surviving Fraction 3 Gy", "setting": "[4]; Table 12, Bafilomycin 4 nM, 3 Gy", "value": "0.08 ± 0.02"},
      {"measurement": "Surviving Fraction 2 nM Bafilomycin", "setting": "[4]; Table 13, 2 nM Bafilomycin, Dose 0 Gy", "value": "0.78 ± 0.05"},
      {"measurement": "Surviving Fraction 2 nM Bafilomycin", "setting": "[4]; Table 13, 2 nM Bafilomycin, Dose 2 Gy", "value": "0.24 ± 0.03"},
      {"measurement": "Surviving Fraction 2 nM Bafilomycin", "setting": "[4]; Table 13, 2 nM Bafilomycin, Dose 3 Gy", "value": "0.11 ± 0.03"},
      {"measurement": "Surviving Fraction 2 nM Bafilomycin", "setting": "[4]; Table 14, 2 nM Bafilomycin + Adriamycin 50 nM", "value": "0.73 ± 0.08"},
      {"measurement": "Surviving Fraction 2 nM Bafilomycin", "setting": "[4]; Table 14, 2 nM Bafilomycin + Adriamycin 100 nM", "value": "0.60 ± 0.05"},
      {"measurement": "Surviving Fraction 2 nM Bafilomycin", "setting": "[4]; Table 14, 2 nM Bafilomycin + Adriamycin 150 nM", "value": "0.38 ± 0.03"},
      {"measurement": "Surviving Fraction 2 nM Bafilomycin", "setting": "[4]; Table 14, 2 nM Bafilomycin, Adriamycin 0 nM", "value": "0.93 ± 0.05"},
      {"measurement": "survival, Adriamycin 100 nM", "setting": "[4]; Table 17, Bafilomycin A1 2 nM + Adriamycin 100 nM, 48 hours", "value": "0.65 ± 0.05"},
      {"measurement": "survival (head of column empty)", "setting": "[4]; Table 17, Bafilomycin A1 2 nM alone, 48 hours", "value": "0.86 ± 0.04"},
      {"measurement": "survival, Adriamycin 100 nM", "setting": "[4]; Table 17, Bafilomycin A1 4 nM + Adriamycin 100 nM, 48 hours", "value": "0.4 ± 0.01"},
      {"measurement": "survival (head of column empty)", "setting": "[4]; Table 17, Bafilomycin A1 4 nM alone, 48 hours", "value": "0.61 ± 0.04"},
      {"measurement": "cell survival, Bafilomycin (2 nM)", "setting": "[4]; Table 19, Bafilomycin 2 nM + Etoposide 0.05 μg/ml", "value": "0.59 ± 0.08"},
      {"measurement": "cell survival, Bafilomycin (2 nM)", "setting": "[4]; Table 19, Bafilomycin 2 nM, Etoposide 0 μg/ml", "value": "1.16 ± 0.07"},
      {"measurement": "decrease of survival in the presence of etoposide", "setting": "[4]; bafilomycin 2 nM, etoposide 0.05 μg/ml", "value": 25, "unit": "%"},
      {"measurement": "concentration range at which F and P-type ATPases activities are affected", "setting": "F and P-type ATPases", "value": "μM range"}
    ]}
  ]
}
